Laboratory results as given in ChEMBL document CHEMBL4219077, “Methyllucidone inhibits STAT3 activity by regulating the expression of the protein tyrosine phosphatase MEG2 in DU145 prostate carcinoma cells” (Bioorg Med Chem Lett, 2018).
Active and inactive are the calls of the source. The rule behind the calls is not given here.

What was measured:
[1] = biological target: Protein farnesyltransferase (Homo sapiens, UniProt P49354+P49356); test: Inhibition of FPTase (unknown origin); format: protein-complex assay
[2] = biological target: T1, PTPN9/STAT3 (Homo sapiens) (UniProt P40763+P43378); test: Modulation of MEG2 in human HCT116 cells harboring pSTAT3 (unknown origin)-TA-Luc assessed as inhibition of STAT3 transcriptional activity after 24 hrs by luciferase reporter gene assay; format: cell-based
T1 sequence (P40763 2-770 limits assumed): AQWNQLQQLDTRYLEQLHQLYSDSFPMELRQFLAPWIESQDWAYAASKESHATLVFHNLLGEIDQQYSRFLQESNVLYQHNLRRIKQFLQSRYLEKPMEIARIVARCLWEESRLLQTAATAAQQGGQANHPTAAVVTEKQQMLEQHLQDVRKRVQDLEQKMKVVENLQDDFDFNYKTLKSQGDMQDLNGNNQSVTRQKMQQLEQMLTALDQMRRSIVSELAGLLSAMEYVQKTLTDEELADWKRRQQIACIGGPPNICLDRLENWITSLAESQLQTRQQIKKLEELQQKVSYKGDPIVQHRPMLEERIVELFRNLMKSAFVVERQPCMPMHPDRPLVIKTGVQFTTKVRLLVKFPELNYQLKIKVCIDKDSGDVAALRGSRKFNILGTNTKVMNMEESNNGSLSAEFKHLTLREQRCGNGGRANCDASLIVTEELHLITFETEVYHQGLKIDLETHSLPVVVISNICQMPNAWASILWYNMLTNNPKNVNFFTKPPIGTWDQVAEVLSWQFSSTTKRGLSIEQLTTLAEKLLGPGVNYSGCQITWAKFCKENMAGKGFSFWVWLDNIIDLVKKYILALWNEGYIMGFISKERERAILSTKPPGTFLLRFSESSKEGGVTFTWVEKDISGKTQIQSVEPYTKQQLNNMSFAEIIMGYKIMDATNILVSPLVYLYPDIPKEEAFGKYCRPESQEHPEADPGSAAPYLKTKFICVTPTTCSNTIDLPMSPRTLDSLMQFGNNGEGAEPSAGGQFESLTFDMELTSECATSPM
T1 sequence (P43378 whole entry partner): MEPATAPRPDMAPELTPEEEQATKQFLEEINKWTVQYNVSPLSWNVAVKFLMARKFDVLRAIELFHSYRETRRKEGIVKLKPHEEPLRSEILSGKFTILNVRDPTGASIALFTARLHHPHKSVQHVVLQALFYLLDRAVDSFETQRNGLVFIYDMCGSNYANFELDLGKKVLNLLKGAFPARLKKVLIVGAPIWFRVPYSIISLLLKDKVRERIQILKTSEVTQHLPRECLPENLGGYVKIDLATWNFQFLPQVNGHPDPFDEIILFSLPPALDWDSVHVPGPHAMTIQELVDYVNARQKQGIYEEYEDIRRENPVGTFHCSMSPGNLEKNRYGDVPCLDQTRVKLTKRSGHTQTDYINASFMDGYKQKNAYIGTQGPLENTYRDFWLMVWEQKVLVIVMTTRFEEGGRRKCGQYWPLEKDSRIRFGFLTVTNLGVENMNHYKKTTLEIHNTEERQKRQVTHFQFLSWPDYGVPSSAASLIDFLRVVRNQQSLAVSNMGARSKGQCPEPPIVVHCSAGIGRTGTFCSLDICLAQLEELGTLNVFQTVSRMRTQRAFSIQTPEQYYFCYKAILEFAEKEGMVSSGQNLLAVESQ

[3] = biological target: T1, PTPN9/STAT3 (Homo sapiens); test: Modulation of MEG2 in human DU145 cells assessed as inhibition of STAT3 phosphorylation at Tyr-705 residue at 20 uM after 24 hrs by Western blot method; format: cell-based
DU-145 [4] = test: Effect on total STAT3 protein expression in human DU145 cells up to 20 uM after 24 hrs by Western blot method; format: ADME, cell-based; details: du-145, 24 h
[5] = biological target: T2, Signal transducer and activator of transcription 1-alpha/beta (Homo sapiens) (UniProt P42224); test: Inhibition of STAT1 phosphorylation in human DU145 cells after 24 hrs by Western blot method; format: cell-based
T2 sequence (whole entry): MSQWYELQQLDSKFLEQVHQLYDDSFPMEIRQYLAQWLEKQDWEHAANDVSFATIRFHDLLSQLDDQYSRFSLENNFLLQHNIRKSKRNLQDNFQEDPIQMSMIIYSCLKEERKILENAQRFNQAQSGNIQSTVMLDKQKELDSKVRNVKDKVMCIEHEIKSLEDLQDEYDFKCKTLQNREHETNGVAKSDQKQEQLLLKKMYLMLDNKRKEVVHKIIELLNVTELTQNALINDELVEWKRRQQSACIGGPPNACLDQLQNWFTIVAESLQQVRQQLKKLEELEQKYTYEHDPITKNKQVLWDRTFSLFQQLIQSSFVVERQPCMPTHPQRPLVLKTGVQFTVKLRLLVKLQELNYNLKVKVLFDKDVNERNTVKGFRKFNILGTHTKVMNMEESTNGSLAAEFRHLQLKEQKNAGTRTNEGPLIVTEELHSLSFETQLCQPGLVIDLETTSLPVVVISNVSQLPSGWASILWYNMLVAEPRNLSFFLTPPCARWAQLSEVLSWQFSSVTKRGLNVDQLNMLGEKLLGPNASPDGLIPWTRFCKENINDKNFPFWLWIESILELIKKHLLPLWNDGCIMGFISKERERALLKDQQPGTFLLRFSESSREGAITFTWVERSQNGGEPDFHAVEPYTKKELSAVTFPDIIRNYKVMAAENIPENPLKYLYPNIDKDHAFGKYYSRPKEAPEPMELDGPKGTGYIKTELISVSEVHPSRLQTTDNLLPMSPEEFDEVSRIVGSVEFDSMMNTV

[6] = biological target: T3, Signal transducer and activator of transcription 5A (Homo sapiens) (UniProt P42229); test: Inhibition of STAT5 phosphorylation in human DU145 cells after 24 hrs by Western blot method; format: cell-based
T3 sequence (whole entry): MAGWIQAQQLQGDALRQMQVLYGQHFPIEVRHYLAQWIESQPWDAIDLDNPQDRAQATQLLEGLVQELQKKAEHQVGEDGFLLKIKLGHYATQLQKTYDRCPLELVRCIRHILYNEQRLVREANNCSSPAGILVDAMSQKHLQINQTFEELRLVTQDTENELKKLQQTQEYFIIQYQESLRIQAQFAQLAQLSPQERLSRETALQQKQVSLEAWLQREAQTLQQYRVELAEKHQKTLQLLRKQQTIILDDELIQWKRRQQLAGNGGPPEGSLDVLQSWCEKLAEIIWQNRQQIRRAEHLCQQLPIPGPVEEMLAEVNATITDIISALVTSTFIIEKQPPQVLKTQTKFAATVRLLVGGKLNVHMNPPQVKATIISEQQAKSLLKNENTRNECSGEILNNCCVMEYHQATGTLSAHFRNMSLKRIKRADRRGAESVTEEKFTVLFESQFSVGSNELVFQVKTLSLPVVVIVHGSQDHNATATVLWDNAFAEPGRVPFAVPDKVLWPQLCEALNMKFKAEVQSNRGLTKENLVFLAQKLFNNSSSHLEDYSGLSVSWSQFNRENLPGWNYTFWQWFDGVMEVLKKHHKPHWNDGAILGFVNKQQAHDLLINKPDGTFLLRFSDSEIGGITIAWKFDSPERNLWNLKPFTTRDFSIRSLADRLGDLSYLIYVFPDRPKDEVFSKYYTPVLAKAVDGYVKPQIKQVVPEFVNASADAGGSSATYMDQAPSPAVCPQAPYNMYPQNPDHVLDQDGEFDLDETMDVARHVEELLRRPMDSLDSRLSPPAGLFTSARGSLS

[7] = biological target: T1, PTPN9/STAT3 (Homo sapiens); test: Modulation of MEG2 in human DU145 cells assessed as inhibition of STAT3 activation by measuring down regulation of Cyclin D1 level at 10 uM after 24 hrs by Western blot method; format: cell-based
[8] = biological target: T1, PTPN9/STAT3 (Homo sapiens); test: Modulation of MEG2 in human DU145 cells assessed as inhibition of STAT3 activation by measuring down regulation of Cyclin A level at 10 uM after 24 hrs by Western blot method; format: cell-based
[9] = biological target: T1, PTPN9/STAT3 (Homo sapiens); test: Modulation of MEG2 in human DU145 cells assessed as inhibition of STAT3 activation by measuring down regulation of survivin level at 10 uM after 24 hrs by Western blot method; format: cell-based
[10] = biological target: T1, PTPN9/STAT3 (Homo sapiens); test: Modulation of MEG2 in human DU145 cells assessed as inhibition of STAT3 activation by measuring down regulation of Mcl1 level at 10 uM after 24 hrs by Western blot method; format: cell-based
[11] = biological target: T1, PTPN9/STAT3 (Homo sapiens); test: Modulation of MEG2 in human DU145 cells assessed as inhibition of STAT3 activation by measuring down regulation of Bcl2 level at 10 uM after 24 hrs by Western blot method; format: cell-based
[12] = biological target: T1, PTPN9/STAT3 (Homo sapiens); test: Modulation of MEG2 in human LNCAP cells assessed as inhibition of IL-6-stimulated STAT3 phosphorylation at 10 uM pretreated for 12 hrs followed by IL-6 stimulation for 30 mins by Western blot method; format: cell-based
DU-145 [13] = test: Antiproliferative activity against human DU145 cells after 48 hrs by WST1 assay; format: functional; details: DU-145, 48 h
LNCaP = test: Antiproliferative activity against human LNCAP cells by WST1 assay; format: functional, cell-based
PC-3 = test: Antiproliferative activity against human PC3 cells by WST1 assay; format: functional, cell-based
DU-145 [14] = test: Cell cycle arrest in human DU145 cells assessed as apoptotic cells at 10 uM after 12 hrs by FACS analysis (reference value: 8.1%); format: functional
DU-145 [15] = test: Cell cycle arrest in human DU145 cells assessed as accumulation at G0/G1 phase at 10 uM after 12 hrs by FACS analysis (reference value: 41.1%); format: functional
DU-145 [16] = test: Cell cycle arrest in human DU145 cells assessed as accumulation at S phase at 10 uM after 12 hrs by FACS analysis (reference value: 7.7%); format: functional
DU-145 [17] = test: Cell cycle arrest in human DU145 cells assessed as accumulation at G2/M phase at 10 uM after 12 hrs by FACS analysis (reference value: 24%); format: functional
DU-145 [18] = test: Cell cycle arrest in human DU145 cells assessed as apoptotic cells at 10 uM after 24 hrs by FACS analysis (reference value: 8.1%); format: functional
DU-145 [19] = test: Cell cycle arrest in human DU145 cells assessed as accumulation at G0/G1 phase at 10 uM after 24 hrs by FACS analysis (reference value: 41.1%); format: functional
DU-145 [20] = test: Cell cycle arrest in human DU145 cells assessed as accumulation at S phase at 10 uM after 24 hrs by FACS analysis (reference value: 7.7%); format: functional
DU-145 [21] = test: Cell cycle arrest in human DU145 cells assessed as accumulation at G2/M phase at 10 uM after 24 hrs by FACS analysis (reference value: 24%); format: functional
DU-145 [22] = test: Cell cycle arrest in human DU145 cells assessed as apoptotic cells at 10 uM after 48 hrs by FACS analysis (reference value: 8.1%); format: functional
DU-145 [23] = test: Cell cycle arrest in human DU145 cells assessed as accumulation at G0/G1 phase at 10 uM after 48 hrs by FACS analysis (reference value: 41.1%); format: functional
DU-145 [24] = test: Cell cycle arrest in human DU145 cells assessed as accumulation at S phase at 10 uM after 48 hrs by FACS analysis (reference value: 7.7%); format: functional
DU-145 [25] = test: Cell cycle arrest in human DU145 cells assessed as accumulation at G2/M phase at 10 uM after 48 hrs by FACS analysis (reference value: 24%); format: functional
DU-145 [26] = test: Induction of apoptosis in human DU145 cells assessed as decrease in procaspase-3 level up to 10 uM by Western blot method; format: functional, cell-based
DU-145 [27] = test: Increase in cleaved caspase-3 level in human DU145 cells up to 10 uM after 24 hrs by Western blot method; format: functional, cell-based
[28] = biological target: Janus Kinase (JAK) (Homo sapiens) (UniProt P52333+P23458+O60674+P29597); test: Inhibition of JAK phosphorylation (unknown origin); format: protein assay
[29] = biological target: Proto-oncogene tyrosine-protein kinase Src (Homo sapiens) (UniProt P12931); test: Inhibition of SRC phosphorylation (unknown origin)
Chain of Proto-oncogene tyrosine-protein kinase Src (Homo sapiens) (P12931 2-536 limits assumed): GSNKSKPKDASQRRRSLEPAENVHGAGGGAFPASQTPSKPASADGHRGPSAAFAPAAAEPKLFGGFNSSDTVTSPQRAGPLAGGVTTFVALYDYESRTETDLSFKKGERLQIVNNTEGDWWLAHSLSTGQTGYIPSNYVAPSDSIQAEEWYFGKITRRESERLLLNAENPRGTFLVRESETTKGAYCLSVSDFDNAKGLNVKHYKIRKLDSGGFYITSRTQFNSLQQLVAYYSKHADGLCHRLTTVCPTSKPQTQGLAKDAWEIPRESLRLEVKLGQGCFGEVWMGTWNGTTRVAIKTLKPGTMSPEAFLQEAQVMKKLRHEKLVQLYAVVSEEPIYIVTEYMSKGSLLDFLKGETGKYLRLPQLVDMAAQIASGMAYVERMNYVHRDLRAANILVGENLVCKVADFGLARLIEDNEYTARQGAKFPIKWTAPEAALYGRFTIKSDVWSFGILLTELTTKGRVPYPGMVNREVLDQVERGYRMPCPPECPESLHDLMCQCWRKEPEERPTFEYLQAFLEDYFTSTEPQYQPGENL

[30] = biological target: T1, PTPN9/STAT3 (Homo sapiens); test: Modulation of MEG2 in human DU145 cells assessed as inhibition of STAT3 phosphorylation at Tyr-705 residue at 10 uM after 24 hrs in presence of phosphatase inhibitor Na3VO4 by Western blot method; format: cell-based
[31] = biological target: Signal transducer and activator of transcription 3 (Homo sapiens) (UniProt P40763); test: Inhibition of STAT3 phosphorylation at Tyr-705 residue in human DU145 cells harboring MEG2 siRNA at 10 uM after 12 hrs by Western blot method; format: cell-based
Chain of Signal transducer and activator of transcription 3 (Homo sapiens) (P40763 whole entry): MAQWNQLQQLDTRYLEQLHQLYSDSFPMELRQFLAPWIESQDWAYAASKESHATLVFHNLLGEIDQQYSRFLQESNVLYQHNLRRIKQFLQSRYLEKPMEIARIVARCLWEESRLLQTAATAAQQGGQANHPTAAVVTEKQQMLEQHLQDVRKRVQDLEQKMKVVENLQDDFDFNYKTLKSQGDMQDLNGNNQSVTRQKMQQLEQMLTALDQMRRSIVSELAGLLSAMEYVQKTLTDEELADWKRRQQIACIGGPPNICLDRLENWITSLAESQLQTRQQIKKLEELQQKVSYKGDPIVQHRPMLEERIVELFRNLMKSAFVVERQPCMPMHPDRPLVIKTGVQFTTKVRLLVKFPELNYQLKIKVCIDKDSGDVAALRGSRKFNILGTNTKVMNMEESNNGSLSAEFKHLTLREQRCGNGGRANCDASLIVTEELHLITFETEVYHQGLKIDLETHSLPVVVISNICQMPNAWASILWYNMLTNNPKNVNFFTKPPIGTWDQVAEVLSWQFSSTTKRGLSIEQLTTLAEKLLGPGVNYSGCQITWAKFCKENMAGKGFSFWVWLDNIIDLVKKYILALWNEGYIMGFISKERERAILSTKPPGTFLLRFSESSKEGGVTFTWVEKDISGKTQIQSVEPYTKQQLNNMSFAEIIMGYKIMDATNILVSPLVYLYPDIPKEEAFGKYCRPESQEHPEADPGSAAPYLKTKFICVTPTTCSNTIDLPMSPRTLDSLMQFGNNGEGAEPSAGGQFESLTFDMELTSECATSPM

DU-145 [32] = test: Increase in MEG2 protein expression in human DU145 cells at 10 uM by Western blot method; format: functional, cell-based; details: TDE = time-dependent effect
[33] = biological target: Signal transducer and activator of transcription 3 (Homo sapiens) (UniProt P40763); test: Inhibition of STAT3 phosphorylation at Tyr-705 residue in human DU145 cells harboring SHP2 siRNA at 10 uM after 12 hrs by Western blot method; format: cell-based

COC1=CC(=O)/C(=C(\C=C\c2ccccc2)OC)C1=O
IC50 [1]: > 40 µM
inhibition [2]: Dose-dependent effect
inhibition [3]: > 90%
Activity (DU-145 [4]): Non-Toxic
inhibition [5]: inactive
inhibition [6]: inactive
inhibition [7]: Active
inhibition [8]: Active
inhibition [9]: Active
inhibition [10]: Active
inhibition [11]: Active
inhibition [12]: Active
GI50 (DU-145 [13]): 15 µM
Activity (LNCaP): inactive
Activity (PC-3): inactive
Activity (DU-145 [14]): 4.5%
Activity (DU-145 [15]): 43.5%
Activity (DU-145 [16]): 7.8%
Activity (DU-145 [17]): 34%
Activity (DU-145 [18]): 8.5%
Activity (DU-145 [19]): 50.3%
Activity (DU-145 [20]): 4.1%
Activity (DU-145 [21]): 23.6%
Activity (DU-145 [22]): 20.8%
Activity (DU-145 [23]): 36.7%
Activity (DU-145 [24]): 5.6%
Activity (DU-145 [25]): 31.6%
Activity (DU-145 [26]): Active
Activity (DU-145 [27]): inactive
inhibition [28]: inactive
inhibition [29]: inactive
inhibition [30]: inactive
inhibition [31]: inactive
Activity (DU-145 [32]): Tde
inhibition [33]: Active
